Results as given in PubChem BioAssay (NCI).
“And” between values parts separate entries of the source, which are not always exact repeats. Equal values may be shown once.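 All cell lines were grown in 96-well plates and treated with compound for 48 hours. GI50 marks 50% less growth. The concentration for full growth arrest is given as TGI.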

tested on: MDA-MB-468 breast; assay: inhibition of tumour cell growth, NCI panel, 48 h

Structure (SMILES) | GI50 | TGI
CCO/C=N/C1=C(C#N)C(c2ccc(F)cc2)c2sc3c(CC)cccc3c2O1 (configuration not stated) | 421 nM | 16000 nM
COc1cc(C2CC(c3cc(C)ccc3C)=NN2c2ccc(S(=O)(=O)NC(=O)NCc3ccccc3)cc2)cc(OC)c1OC (configuration not stated) | 2320 nM | 5530 nM
C/C(=C\CCc1ccoc1)CC/C=C(\C)CCCN1CCC(CO)CC1 | 1700 nM | 4450 nM
COC(=O)Nc1nc2cc3c(cc2s1)OCCO3 | 29200 nM | > 50000 nM
CCOc1ccc(/C=C/[N+](=O)[O-])cc1 | 1970 nM | 3970 nM
O=C1/C(=C/c2ccccc2)CCC/C1=C\c1ccccc1 | 3120 nM | 19400 nM
COc1ccc(Cc2cnc(NC(=O)c3sc4ccccc4c3Cl)s2)cc1 | 416 nM | > 100000 nM
N#Cc1c(NC(=O)CN2CCOCC2)sc2c1CCCC2 | > 21700 nM | > 25000 nM
COc1ccc(C2=C(c3cc(OC)c(OC)c(OC)c3)C(=O)CC2)cc1 | 67.3 nM | –
C#COc1cccc(Nc2ncnc3ncc(NC(=O)CCl)cc23)c1 | > 35400 nM | > 62500 nM
Cc1cc(-c2nc(-c3ccc(OC(F)(F)F)cc3)no2)nn1Cc1ccnc(N2CCN(C3CC3)CC2)c1 | < 10 nM | 5680 nM
CCN(CC)CCCC(Nc1c2ccc(Cl)cc2nc2ccc(OC)cc12)c1ccc(F)cc1 (configuration not stated) | 1650 nM | 3220 nM
COc1ccc(-c2nn(-c3cccc(NC(=O)Nc4cc(C(F)(F)F)cc(C(F)(F)F)c4)c3)cc2-c2ccncc2)cc1Cl | 641 nM | 2890 nM
CCCCN(CCCC)CCCN=c1nc2c(c(N)n1-c1ccccc1)c(=S)n(-c1ccccc1)c(=S)n2-c1ccccc1 | 218 nM | 518 nM
Cn1cc(C[C@@H](N)C(=O)O)c2ccccc21 | > 100000 nM | > 100000 nM
COC(=O)[C@@]1(C)CC[C@]2(C)CC[C@]3(C)C4=CC=C5C(=CC(=O)C(O)=C5C)[C@]4(C)CC[C@@]3(C)[C@@H]2C1 | 165 nM | 359 nM
CC[CH2][Sn]([Cl])([Cl])[CH2]CC | 1920 nM | 6960 nM
Nc1ccccc1NC(=O)c1ccc(CN2CCC/C(=C\c3cccc(Cl)c3)C2=O)cc1 | 63.6 nM | 5900 nM
C=CCN(/C=C1\C(=O)O[C@H](COC)[C@@]2(C)C1=C(O)C(=O)C1=C2[C@H](OC(C)=O)C[C@]2(C)C(=O)CC[C@@H]12)CC=C | 77.8 nM | 649 nM
C=C1CCC2C3(C)COC(c4ccc(SC)cc4)OC3CCC2(C)C1C/C=C1/C(=O)OCC1O (configuration not stated) | 5340 nM | 18300 nM
CC[C@H](C)n1cc(C)c2c(C(=O)NCc3c(C)cc(C)[nH]c3=O)cc(-c3ccc(N4CCNCC4)nc3)cc21 | 2150 nM and 5090 nM | 7630 nM and 18700 nM
c1ccc(-c2nn(-c3ccccc3)[n+](-c3cccc4ccccc34)n2)cc1 | 265 nM | 1770 nM
Cc1nc(/N=C(\N)NC(=O)Nc2ccccc2Cl)sc1C | 459 nM | 4670 nM
CC1=C([Se]CC(OC(=O)[C@@H](CO)NC(=O)OC(C)(C)C)C(=O)NC(C)(C)C)C(=O)c2ccccc2C1=O (some centres not stated) | 759 nM | 2290 nM
CNC(C)C(=O)N[C@H](C(=O)N1CCC[C@@H]1CN(CCc1ccccc1)C(=O)C(F)(F)F)[C@H](C)OCC#CC#CCO[C@H](C)[C@H](NC(=O)[C@H](C)NC)C(=O)N1CCC[C@H]1CN(CCc1ccccc1)C(=O)C(F)(F)F (some centres not stated) | < 10 nM | 22.1 nM
N#Cc1c(-c2ccc(Cl)cc2)nc(SCc2ccc(F)cc2)nc1N1CCNCC1 | 1470 nM | 2880 nM
COc1cccc(C2C3=C(COC3=O)N(CCO)c3cc4c(cc32)OCCO4)c1 (configuration not stated) | 68.4 nM | 1270 nM
COc1cc([C@@H]2c3cc4c(cc3[C@@H](O[C@@H]3O[C@@H]5CO[C@@H](c6cccs6)O[C@H]5[C@H](O)[C@H]3O)[C@H]3COC(=O)[C@H]23)OCO4)cc(OC)c1O | 186 nM | 537 nM

tested on: SK-MEL-28 melanoma; assay: inhibition of tumour cell growth, NCI panel, 48 h

Structure (SMILES) | GI50 | TGI
COc1ccc(/C=C/c2n(Cc3ccc4ccccc4c3)c3ccccc3[n+]2Cc2ccc3ccccc3c2)cc1 | 818 nM | 2080 nM
